Results: patent US20240376480A1, “TREATMENT OF ELEVATED METABOLITE LEVELS USING NANOCARRIERS” (RAMOT AT TEL-AVIV UNIVERSITY LTD., priority 2021, published 2024)

What was measured:
aah1Δ apt1Δ yeast model [1] = experiment: Yeast growth assay (OD600) in excess-adenine yeast model; format: cell-based; settings: low and high adenine concentrations (1 mg/L and 4 mg/L)
Experimental: Yeast growth assays: the strains used in this work were BY4741 (WT) and the adenine salvage mutant, aah1Δ apt1Δ, that was established by a disruption of both AAH1 and APT1. The strains were grown overnight at 30° C. in synthetic defined SD medium (6.7 g/L Yeast Nitrogen Base without Amino Acids (Difco) and 20 g/L glucose (Merck)) containing a specific mixture of amino acids and nucleobases (without adenine). For OD600 measurements, strains were diluted to OD600=0.01. 200 μL of cells were platted on 96 wells microplates (Greiner, F-BOTTOM) with increasing concentrations of adenine (1, 2 and 4 mg/L) and with 2.5% (V/V) of the VLP-riboswitch nano-carries and incubated at 30° C. for 25 h with continuous shaking. OD600 was measured using Tecan™ SPARK 10M plate reader.
The aah1Δ apt1Δ mutant yeast model was grown in media without adenine or in media with 1, 2, and 4 mg/L of adenine, respectively.

aah1Δ apt1Δ yeast model [2] = settings: TA added to the media; cited from earlier work
[3] = ligand adenine; cited from earlier work

## O=C(OC[C@H]1O[C@@H](OC(=O)c2cc(O)c(O)c(OC(=O)c3cc(O)c(O)c(O)c3)c2)[C@H](OC(=O)c2cc(O)c(O)c(OC(=O)c3cc(O)c(O)c(O)c3)c2)[C@@H](OC(=O)c2cc(O)c(O)c(OC(=O)c3cc(O)c(O)c(O)c3)c2)[C@@H]1OC(=O)c1cc(O)c(O)c(OC(=O)c2cc(O)c(O)c(O)c2)c1)c1cc(O)c(O)c(OC(=O)c2cc(O)c(O)c(O)c2)c1 [TA, tannic acid]
aah1Δ apt1Δ yeast model [1]
  growth of the model yeast: showed an improved growth
aah1Δ apt1Δ yeast model [2]
  amyloid-like structures of the adenine inside the yeast: significant decrease

B1: A58U riboswitch: pbuE adenine riboswitch with uracil substituted for adenine at position 58 (nucleic acid)
chain: GCGCGTTGTATAACCTCAATAATATGGTTTGAGGGTGTCTACCAGGAACCGTAAATTCCTGATTACAACGC
modifications: expressed or natural sequence
[3]
  Kd: 273 ± 17 nM
